Laboratory results: patent US7094911B2, “Biphenyl and biphenyl-analogous compounds as integrin antagonists” (Bayer Aktiengesellschaft, priority 1998, dated 2006)

Work on `COc1ccc(-c2cccc(CNc3ccccn3)c2)cc1S(=O)(=O)NC(CC(=O)O)c1ccccc1` (stereo not shown) [Example 18.3] yielded a melting point of 138 °C.
Molecule `O=C(O)[C@H](Cc1ccc(-c2cccc(CNc3ccccn3)c2)cc1)NS(=O)(=O)Cc1ccc(F)cc1` [Example 18.10] has a melting point of over 240 °C.
Molecule `COc1ccc(-c2ccc(NC(=O)NCC(C)C)cc2)cc1S(=O)(=O)NC(CC(=O)O)c1ccccc1` (stereo not shown) [Example 4.72] has a melting point of 126 °C.
Molecule `CCCCNC(=O)Nc1cccc(-c2ccc(OC)c(S(=O)(=O)N[C@@H](CC(=O)O)c3ccccc3)c2)c1` [Example 4.96] has a melting point of 156 °C.
In the case of `O=C(NCc1ccccc1)Nc1cccc(-c2ccc(C[C@H](NS(=O)(=O)CCCC(F)(F)F)C(=O)O)cc2)c1` [Example 1.161], the melting point is reported as 163 °C.
Work on `Cc1cc(C)c(S(=O)(=O)N[C@@H](Cc2ccc(-c3cccc(N/C(=N/C#N)NCc4ccccc4)c3)cc2)C(=O)O)c(C)c1` [Example 10.8] yielded a melting point of 169 °C.
With `COc1ccc(-c2ccc(NC(=O)NCc3ccccn3)cc2)cc1S(=O)(=O)NC(CC(=O)O)c1ccccc1` (stereo not shown) [Example 4.69] the melting point was 158 °C.
`C[C@@H](NS(=O)(=O)c1cccc(-c2cccc(NC(=O)N=c3[nH]c4ccccc4[nH]3)c2)c1)C(=O)O` [Example 4.83] gave a melting point of 158 °C.
In the case of `COc1ccc(-c2ccc(NC(=O)NCc3ccccc3)cc2)cc1S(=O)(=O)NC(CC(=O)O)c1ccccc1` (stereo not shown) [Example 4.70], the melting point is reported as 150 °C.
`Cc1cc(C)c(S(=O)(=O)N[C@@H](Cc2ccc(-c3cccc(NC(=O)Nc4nc5ccc(C)cc5o4)c3)cc2)C(=O)O)c(C)c1` [Example 1.196] gave a melting point of 213 °C.
In the case of `COc1ccc(-c2ccc(NC(=O)Nc3cccnc3)cc2)cc1S(=O)(=O)NC(CC(=O)O)c1ccccc1` (stereo not shown) [Example 4.75], the melting point is reported as 188 °C.
In the case of `CCNC(=O)Nc1cccc(-c2ccc(OC)c(S(=O)(=O)NC(CC(=O)O)c3ccccc3)c2)c1` (stereo not shown) [Example 4.73], the melting point is reported as over 250 °C.
`COc1ccc(-c2cccc(Nc3ccccn3)c2)cc1S(=O)(=O)NC(CC(=O)O)c1ccccc1` (stereo not shown) [Example 20.5] gave a melting point of over 240 °C.
`Cc1cc(C)c(S(=O)(=O)N[C@@H](Cc2ccc(-c3cccc(NC(=O)N=c4[nH]c5cc(C)c(C)cc5[nH]4)c3)cc2)C(=O)O)c(C)c1` [Example 1.190] showed a melting point of 202 °C.
For `COc1ccc(-c2cccc(NC(=O)NCc3ccc(C(F)(F)F)cc3)c2)cc1S(=O)(=O)NC(CC(=O)O)c1ccccc1` (stereo not shown) [Example 4.102], the melting point was over 240 °C.
`COc1ccc(-c2ccc(NC(=O)NC3CC3)cc2)cc1S(=O)(=O)NC(CC(=O)O)c1ccccc1` (stereo not shown) [Example 4.76] gave a melting point of 234 °C.
Work on `CC1(C)C2CC[C@@]1(CS(=O)(=O)N[C@@H](Cc1ccc(-c3ccc(NC(=O)Nc4ccncc4)cc3)cc1)C(=O)O)C(=O)C2` [Example 1.214] yielded a melting point of 207 °C.
`O=C(O)[C@H](Cc1ccc(-c2cccc(CNc3ccccn3)c2)cc1)NS(=O)(=O)c1ccc(F)cc1` [Example 18.8] showed a melting point of over 240 °C.
For `CC1(C)[C@H]2CCC1(CS(=O)(=O)N[C@@H](Cc1ccc(-c3cccc(N/C(=C/[N+](=O)[O-])NC4CCC4)c3)cc1)C(=O)O)C(=O)C2` [Example 12.9], the melting point was 151 °C (dec.).
`Cc1cc(C)c(S(=O)(=O)N[C@@H](Cc2ccc(-c3cccc(NC(=O)N=c4[nH]c5ccccc5[nH]4)c3)cc2)C(=O)O)c(C)c1` [Example 1.210] showed a melting point of 207 °C.
In the case of `CS(=O)(=O)N[C@@H](Cc1ccc(-c2cccc(Nc3c(NC4CC4)c(=O)c3=O)c2)cc1)C(=O)O` [Example 13.9], the melting point is reported as 210 °C (dec.).
For `C[C@H](NS(=O)(=O)c1cccc(-c2cccc(NC(=O)N=c3[nH]c4ccccc4[nH]3)c2)c1)C(=O)O` [Example 4.80], the melting point was 218 °C.
Work on `O=C(O)[C@H](Cc1ccc(-c2cccc(CNc3ccccn3)c2)cc1)NS(=O)(=O)c1c(Cl)cccc1Cl` [Example 18.13] yielded a melting point of over 240 °C.
For `Cc1cc(C)c(S(=O)(=O)N[C@@H](Cc2ccc(-c3cccc(Nc4c(NCc5ccccn5)c(=O)c4=O)c3)cc2)C(=O)O)c(C)c1` [Example 13.3], the melting point was 214 °C (dec.).
Work on `O=C(O)[C@H](Cc1ccc(-c2cccc(CNc3ccccn3)c2)cc1)NS(=O)(=O)C1CC1` [Example 18.11] yielded a melting point of over 240 °C.
With `O=C(O)C[C@@H](NS(=O)(=O)c1cccc(-c2cccc(NC(=O)NCc3cccnc3)c2)c1)c1ccccc1` [Example 4.92] the melting point was 126 °C.
`CCS(=O)(=O)N[C@@H](Cc1ccc(-c2cccc(CNc3ccccn3)c2)cc1)C(=O)O` [Example 18.7] gave a melting point of over 240 °C.
`CC1(C)C2CC[C@@]1(CS(=O)(=O)N[C@@H](Cc1ccc(-c3ccc(NC(=O)N=c4[nH]c5ccccc5[nH]4)cc3)cc1)C(=O)O)C(=O)C2` [Example 1.215] showed a melting point of 222 °C.
`Cc1cc(C)c(S(=O)(=O)N[C@@H](Cc2ccc(-c3cccc(NC(=O)Nc4nc5ccc(C)cc5s4)c3)cc2)C(=O)O)c(C)c1` [Example 1.199] showed a melting point of 220 °C.
With `O=C(O)C[C@@H](NS(=O)(=O)c1cccc(-c2cccc(NC(=O)NCc3ccc(C(F)(F)F)cc3)c2)c1)c1ccccc1` [Example 4.95] the melting point was 186 °C.
With `Cc1cc(C)c(S(=O)(=O)N[C@@H](Cc2ccc(-c3cccc(Nc4nc5ccccc5[nH]4)c3)cc2)C(=O)O)c(C)c1` [Example 16.1.3, (2S)-3-[3′-(1H-benzimidazol-2-ylamino)[1,1′-biphenyl]-4-yl]-2-[(mesitylsulfonyl)amino]propanoic acid] the melting point was 190 °C (dec.).
`COc1ccc2[nH]/c(=N\C(=O)Nc3cccc(-c4ccc(OC)c(S(=O)(=O)NC(CC(=O)O)c5ccccc5)c4)c3)[nH]c2c1` (stereo not shown) [Example 4.105] gave a melting point of over 240 °C.
`COc1ccc(-c2ccc(NC(=O)NCc3ccncc3)cc2)cc1S(=O)(=O)NC(CC(=O)O)c1ccccc1` (stereo not shown) [Example 4.66] gave a melting point of 145 °C.
With `O=C(O)CC(NS(=O)(=O)c1cccc(-c2cccc(NC(=O)NCc3ccccn3)c2)c1)c1cccnc1` (stereo not shown) [Example 4.40] the melting point was 176 °C.
In the case of `Cc1cc(C)c(S(=O)(=O)NC(Cc2cccc(-c3cccc(NC(=O)NCc4ccccn4)c3)c2)C(=O)O)c(C)c1` (stereo not shown) [Example 1.193], the melting point is reported as 118 °C.
With `COc1ccc(-c2cccc(NC(=O)N=c3[nH]c4cc(C)c(C)cc4[nH]3)c2)cc1S(=O)(=O)NC(CC(=O)O)c1ccccc1` (stereo not shown) [Example 4.104] the melting point was over 240 °C.
Molecule `Cc1cc(C)c(S(=O)(=O)N[C@@H](Cc2ccc(-c3cccc(NC(=O)c4cccnc4)c3)cc2)C(=O)O)c(C)c1` [Example 19.4] has a melting point of over 240 °C.
For `Cc1cc(C)c(S(=O)(=O)N[C@@H](Cc2ccc(-c3cccc(Nc4c(NC5CC5)c(=O)c4=O)c3)cc2)C(=O)O)c(C)c1` [Example 13.1.3, (2S)-3-(3′-{[2-(cyclopropylamino)-3,4-dioxo-1-cyclobuten-1-yl]-amino}[1,1′-biphenyl]-4-yl)-2-[(mesitylsulfonyl)amino]-propanoic acid], the melting point was 164 °C.
In the case of `Cc1cc(C)c(S(=O)(=O)N[C@@H](Cc2ccc(-c3cccc(Nc4n[s+]([O-])nc4NC4CC4)c3)cc2)C(=O)O)c(C)c1` (stereo partly drawn) [Example 17.1.3, (2S)-2-[(Mesitylsulfonyl)amino]-3-(3′-{[4-(cyclopropylamino)-1-oxo-1H-1[lambda]4,2,5-thiadiazol-3-yl]amino}[1,1′-biphenyl]-4-yl)-propanoic acid], the melting point is reported as 180 °C (dec.).
In the case of `COc1ccc(-c2cccc(NC(=O)N=c3[nH]cc[nH]3)c2)cc1S(=O)(=O)NC(CC(=O)O)c1ccccc1` (stereo not shown) [Example 4.86], the melting point is reported as 209 °C.
